Reference: publication PMC10249358, “Elucidation of Short Linear Motif-Based Interactions of the FERM Domains of Ezrin, Radixin, Moesin, and Merlin” (Biochemistry, 2023)
No end group written: not given here.

Columns and labels:
merlin FERM domain = target: T1, merlin FERM domain (Homo sapiens, UniProt P35240); assay: Direct binding fluorescence polarization (FP) assay, FITC-labeled probe peptides; settings: FITC-labeled probe peptide 5 nM titrated with FERM domain, 20 mM HEPES pH 7.4, 150 mM NaCl, 0.05% Tween-20, 3 mM DTT, quadratic 1:1 fit, n = 3 technical repeats, N.B. within the concentration range tested
T1 construct: human merlin FERM (P35240; amino acids 22–312); His-GST (N, cleaved yes); made in house; host or cells: E. coli BL21(DE3)
T1 sequence (P35240 22-312): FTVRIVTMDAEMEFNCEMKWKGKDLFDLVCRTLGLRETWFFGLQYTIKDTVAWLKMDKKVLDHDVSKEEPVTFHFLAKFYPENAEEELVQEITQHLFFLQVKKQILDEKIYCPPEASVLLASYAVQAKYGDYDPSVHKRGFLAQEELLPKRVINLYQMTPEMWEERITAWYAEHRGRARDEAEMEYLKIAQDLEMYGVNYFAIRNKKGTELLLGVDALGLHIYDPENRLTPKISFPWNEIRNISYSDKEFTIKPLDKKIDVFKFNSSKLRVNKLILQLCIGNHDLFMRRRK
Description: (§1) For fluorescence polarization (FP) experiments of merlin FERM, the GST tag was removed using HRV3C protease by incubating the enzyme (100 units/10 mg protein) with protein overnight at 4 °C in the dialysis buffer (20 mM HEPES, pH 7.4, 150 mM NaCl, 0.05% Tween-20, and 3 mM DTT). The following day, the cleaved GST and the protease were removed using reverse Ni-IMAC, and the protein was concentrated to the working concentration. For FP experiments using moesin FERM, thrombin (Sigma) was used to cleave the GST tag from moesin FERM domain on GSH sepharose beads (Cytiva) and incubated overnight at 4 °C under gentle rotation. Next day, the beads were collected by gentle centrifugation, while the supernatant containing thrombin and moesin FERM domain was passed through a HiTrap benzamidine column (Cytiva). The protein was then eluted using a high salt (0.7–1 M NaCl) concentration. The buffer was then exchanged using the PD-10 desalting column (Cytiva) into FP buffer (20 mM HEPES, pH 7.4, 150 mM NaCl, 0.05% Tween-20, and 3 mM DTT).
(§2) Synthetic peptides were obtained at 95% purity (GeneCust) and were dissolved in FP buffer (described earlier). To obtain direct binding saturation data, a dilution series of moesin FERM domain was prepared using the FP buffer, and then an equal volume of 10 nM FITC-labeled peptide was added to each sample. After mixing, the FP signals were recorded using SpectraMax iD5 (Molecular Devices). Data were analyzed with GraphPad Prism version 7.0.0 for MacOS (GraphPad Software, San Diego, California USA). A quadratic equation for equilibrium binding[37] was used to fit the obtained data. [drawing 1] where pept indicates the probe peptide concentration (5 nM), X indicates the protein concentration, the constant A being the signal amplitude divided by probe peptide concentration, and B is the plateau value. Direct binding experiments were performed and analyzed the same way in the presence of saturating concentration of unlabeled peptides.

moesin FERM domain [1] = target: T2, moesin FERM domain (Homo sapiens, UniProt P26038); assay: Direct binding FP in the presence of saturating concentration of unlabeled competing peptide
T2 construct: pGEX4T Moesin (P26038) FERM was a gift from Vijaya Ramesh (Addgene plasmid # 1163); GST (N, cleaved yes); made in house; host or cells: E. coli BL21(DE3)
Description: as §2
We next explored the interplay between the F3a and F3b ligands by determining the affinity of FITC-labeled model peptides in the presence of high concentrations of the competing ligands (Figure 6A,B). […] The asymmetric competition could potentially be explained by an allosteric model where binding to the F3a site induces a conformational change of the protein that reduces the affinity for F3b ligands.

moesin FERM domain [2] = target: T2, moesin FERM domain; assay: Direct binding fluorescence polarization (FP) assay, FITC-labeled probe peptides; settings: FITC-labeled probe peptide 5 nM titrated with FERM domain, 20 mM HEPES pH 7.4, 150 mM NaCl, 0.05% Tween-20, 3 mM DTT, quadratic 1:1 fit, n = 3 technical repeats
Description: as §1, §2

moesin FERM domain [3] = target: T2, moesin FERM domain; assay: Competitive FP assay, unlabeled peptide outcompetes FITC-labeled probe; assay type: binding
Description: (§3) 25 μL of this premix was added to 25 μL of titrated target peptide. FP signals were determined as described earlier. […] All measurements were performed at least in triplicates.

radixin FERM domain = target: T3, radixin FERM domain (Homo sapiens, UniProt P35241); assay: as above; assay type: binding; settings: competition FP, unlabeled peptide vs FITC-KIRREL3 probe; at least triplicates
T3 construct: radixin FERM (P35241; 5–295) domains were commercially synthesized; His-GST (N); made in house; host or cells: E. coli BL21(DE3)
Description: as §3

moesin FERM M285A/H288A = target: T4, moesin FERM M285A/H288A (Homo sapiens, UniProt P26038, H288A/M285A); assay: Direct binding FP assay with F3b-site mutant; settings: direct binding of FITC-labeled probe; Table S7
T4 construct: we generated a mutant moesin FERM domain (M285A and H288A); GST (N, cleaved yes); made in house; host or cells: E. coli BL21(DE3)
Description: Synthetic genes encoding for human merlin FERM (P35240; amino acids 22–312) and radixin FERM (P35241; 5–295) domains were commercially synthesized (ThermoFisher) and cloned into pETM33 using NcoI and EcoRI restriction sites. pGEX4T Moesin (P26038) FERM was a gift from Vijaya Ramesh (Addgene plasmid # 1163[27]). pGEX4T1 Ezrin (P15311) FERM domain was a kind gift from Volker Gerke.[28] Human NOP53-HA-pcDNA was a kind gift from Ronit Sarid.[29] The NOP53 gene was polymerase chain reaction (PCR)-amplified and cloned into CMV10 using HindIII and EcoRI. RRBP1-GFP was kindly provided by Alexander F. Palazzo.[30] HA-HIF1-alpha-pcDNA3 was a gift from William Kaelin (Addgene plasmid # 18949[31]). pcDNA3 LATS1 was a gift from Erich Nigg (Addgene plasmid # 41156[32]). […]
Synthetic peptides were obtained at 95% purity (GeneCust) and were dissolved in FP buffer (described earlier). […] After mixing, the FP signals were recorded using SpectraMax iD5 (Molecular Devices). Data were analyzed with GraphPad Prism version 7.0.0 for MacOS (GraphPad Software, San Diego, California USA). […] Direct binding experiments were performed and analyzed the same way in the presence of saturating concentration of unlabeled peptides.
To validate the models on the receptor side, we generated a mutant moesin FERM domain (M285A and H288A) and determined the effect on the affinity. […]

[4] = moesin FERM, unlabeled peptide at about 100 times KD (80–150 μM)
[5] = direct binding FP in presence of excess unlabeled KIRREL3 (80 μM), Figure 6E, read-out: KD of FITC-labeled probe for moesin FERM, saturating peptide KIRREL3
[6] = direct binding FP in presence of excess unlabeled TBX4 (80 μM), Figure 6F, read-out: KD of FITC-labeled probe for moesin FERM, saturating peptide TBX4
[7] = competitive FP using WT FITC-labeled ZNF622 as probe, Figure 5D, read-out: KD' (moesin FERM, ZNF622 peptide variants)
[8] = competitive FP using FITC-KIRREL3_637–652 as probe, Figure 4G, read-out: KD' (moesin FERM, KIRREL3 and TBX4 peptide variants)

T2 sequence (P26038 2-295 limits assumed): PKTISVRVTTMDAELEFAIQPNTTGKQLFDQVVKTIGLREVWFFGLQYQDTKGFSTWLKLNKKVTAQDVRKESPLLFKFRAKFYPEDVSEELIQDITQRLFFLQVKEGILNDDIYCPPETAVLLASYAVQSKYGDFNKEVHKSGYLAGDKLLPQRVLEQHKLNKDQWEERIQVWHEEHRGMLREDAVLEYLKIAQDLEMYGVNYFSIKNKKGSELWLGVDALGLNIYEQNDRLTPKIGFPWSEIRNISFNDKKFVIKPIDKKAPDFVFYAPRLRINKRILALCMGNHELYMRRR
T4 sequence (P26038 2-295 M285A/H288A limits assumed): as the sequence (P26038 2-295 limits assumed) above, with M284A, H287A counted along it
T3 sequence (P35241 5-295): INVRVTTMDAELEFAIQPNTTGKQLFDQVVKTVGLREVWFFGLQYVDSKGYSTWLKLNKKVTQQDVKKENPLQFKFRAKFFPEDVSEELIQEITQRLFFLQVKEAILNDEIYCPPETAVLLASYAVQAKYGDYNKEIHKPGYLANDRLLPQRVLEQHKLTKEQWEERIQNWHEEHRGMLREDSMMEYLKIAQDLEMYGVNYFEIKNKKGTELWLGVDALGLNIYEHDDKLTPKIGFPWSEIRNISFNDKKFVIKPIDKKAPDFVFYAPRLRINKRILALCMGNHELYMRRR

Substance: YYSVNTFKEHHSTPTI [KIRREL3_637–652]
- KD, merlin FERM domain (merlin FERM domain): N.B.

Substance: KIRREL3_634–652: unlabeled F3b ligand used at 80 μM as saturating competitor; residue range as printed (TNGYYSVNTFKEHHSTPTI)
- effect of excess unlabeled peptide on binding of FITC-EBP50 / FITC-ZNF622 to the F3a site (moesin FERM domain [1]; [4]): not binding
- effect of excess unlabeled peptide on binding of FITC-KIRREL3 / FITC-TBX4 to the F3b site (moesin FERM domain [1]; [4]): blocked binding

Substance: APQMDWSKKNELFSNL [EBP50_343–358, reference compound]
- Kd (moesin FERM domain [2]): 3000 ± 300 nM
- Kd (moesin FERM domain [1]; [5]): 3300 ± 200 nM
- Kd (moesin FERM domain [1]; [6]): 3400 ± 200 nM

Substance: LEAADFYDFRSSYPDH
- Kd (moesin FERM domain [3]; [7]): 2300 ± 100 nM

Substance: LEFADAYDFRSSYPDH
- Kd (moesin FERM domain [3]; [7]): 85000 ± 2000 nM

Substance: FYELAHQLPLPHNVSS [HIF1A37–52]
- Kd (moesin FERM domain [3]; competition FP, determined using FITC-ZNF622 as the probe peptide (footnote b), read-out: moesin KD′): 3000 ± 400 nM

Substance: ITGSYSVSESPFFSPI [MISP595–610]
- Kd (moesin FERM domain [3]; read-out: moesin KD′): 2300 ± 100 nM

Substance: LYTLPDDSTHQLLQPH [BOC1000–1015]
- Kd (radixin FERM domain): 17000 ± 2000 nM

Substance: TNGYYSANTFKEHHST
- Kd (moesin FERM domain [3]; [8]): 50000 ± 6000 nM

Substance: SYSVQTMETVPYQPFP [TBX4_428–443]
- KD, merlin FERM domain (merlin FERM domain): N.B.
- Kd (moesin FERM domain [3]; [8]): 1000 ± 100 nM

Substance: LEFADFYDFRSSAPDH
- Kd (moesin FERM domain [3]; [7]): 2800 ± 100 nM

Substance: TNGYASVNTFKEHHST
- Kd (moesin FERM domain [3]; [8]): 58000 ± 5000 nM

Substance: LEFADFYAFRSSYPDH
- Kd (moesin FERM domain [3]; [7]): 50000 ± 2000 nM

Substance: TNGAYSVNTFKEHHST
- Kd (moesin FERM domain [3]; [8]): 110 ± 10 nM

Substance: THHKALQEIRNSLLPF [LATS1_73–88, reference compound]
- Kd (moesin FERM M285A/H288A): 1300 ± 100 nM
- Kd (moesin FERM domain [2]): 1000 ± 100 nM

Substance: TNGYYSVNTFKEHHST
- Kd (moesin FERM domain [3]; [8]): 100 ± 10 nM

Substance: LEFADFYDFRSSYPDH [ZNF622_341–356]
- Kd (moesin FERM M285A/H288A): 1300 ± 100 nM
- Kd (moesin FERM domain [2]): 1000 ± 100 nM
- Kd (moesin FERM domain [1]; [5]): 1400 ± 100 nM
- Kd (moesin FERM domain [1]; [6]): 1300 ± 200 nM
- Kd (moesin FERM domain [3]; [7]): 1400 ± 100 nM
